What all share (assay type): biochemical
For one assay, the target named is PKA (Homo sapiens, UniProt P17612). Briefly: PKA inhibition assay (standard coupled enzyme assay). The note with it: 50 μM ATP, 80 μM Kemptide, 18 nM PKA, 30° C. The essentials:
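Coupled PK/LDH assay (NADH read) with 18 nM PKA, 50 μM ATP and 80 μM Kemptide in 100 mM HEPES 7.5, 10 mM MgCl2, 3% DMSO at 30 °C. Compound dilutions (typically from 5 μM final) preincubated 10 min before ATP start; initial rates over 15 min gave IC50 and Ki by non-linear regression.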

The next assay addresses AKT-3 (Homo sapiens, UniProt Q9Y243). Kind of assay: AKT-3 inhibition assay (standard coupled enzyme assay). The note with it: 170 μM ATP, 200 μM peptide, 45 nM AKT, 30° C.
The next assay deals with T1, PDK-1 (Homo sapiens, UniProt O15530).
T1 sequence (O15530 1-556): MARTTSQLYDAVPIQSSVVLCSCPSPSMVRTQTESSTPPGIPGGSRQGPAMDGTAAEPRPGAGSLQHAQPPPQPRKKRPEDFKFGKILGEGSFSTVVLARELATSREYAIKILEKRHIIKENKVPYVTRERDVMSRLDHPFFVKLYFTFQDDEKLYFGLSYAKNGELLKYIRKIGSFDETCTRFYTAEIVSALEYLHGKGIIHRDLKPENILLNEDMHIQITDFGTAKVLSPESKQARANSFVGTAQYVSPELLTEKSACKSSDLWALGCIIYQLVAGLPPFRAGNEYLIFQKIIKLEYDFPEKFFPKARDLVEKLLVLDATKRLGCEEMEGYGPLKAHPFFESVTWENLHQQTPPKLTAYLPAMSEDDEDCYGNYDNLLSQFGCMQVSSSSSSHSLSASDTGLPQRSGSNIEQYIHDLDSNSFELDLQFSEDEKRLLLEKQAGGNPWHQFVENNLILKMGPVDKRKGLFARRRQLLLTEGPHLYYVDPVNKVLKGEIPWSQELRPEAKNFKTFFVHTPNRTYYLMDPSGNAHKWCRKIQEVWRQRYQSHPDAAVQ
Briefly: PDK-1 inhibition assay (radioactive-phosphate incorporation). The note with it: 40 μM ATP, 65 μM PDKtide, 25 nM PDK-1, 30° C.

Sequence of AKT-3 (Q9Y243 whole entry): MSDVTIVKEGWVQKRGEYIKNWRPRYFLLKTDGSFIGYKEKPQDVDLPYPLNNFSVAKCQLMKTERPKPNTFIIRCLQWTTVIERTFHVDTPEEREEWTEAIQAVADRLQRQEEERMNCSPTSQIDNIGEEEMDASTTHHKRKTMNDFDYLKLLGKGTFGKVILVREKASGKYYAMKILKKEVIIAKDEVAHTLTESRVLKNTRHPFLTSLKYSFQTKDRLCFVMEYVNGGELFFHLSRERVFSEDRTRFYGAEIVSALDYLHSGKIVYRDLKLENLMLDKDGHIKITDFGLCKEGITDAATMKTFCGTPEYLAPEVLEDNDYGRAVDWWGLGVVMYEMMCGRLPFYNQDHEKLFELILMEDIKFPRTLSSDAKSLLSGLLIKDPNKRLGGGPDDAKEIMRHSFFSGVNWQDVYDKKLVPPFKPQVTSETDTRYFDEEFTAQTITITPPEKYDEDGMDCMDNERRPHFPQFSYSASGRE
Method for AKT-3: Assays were carried out in a mixture of 100 mM HEPES 7.5, 10 mM MgCl2, 25 mM NaCl, 1 mM DTT and 3% DMSO. Final substrate concentrations in the assay were 170 μM ATP (Sigma Chemicals) and 200 μM peptide (RPRAATF, American Peptide, Sunnyvale, Calif.). Assays were carried out at 30° C. and 45 nM AKT. Final concentrations of the components of the coupled enzyme system were 2.5 mM phosphoenolpyruvate, 300 μM NADH, 30 μg/ML pyruvate kinase and 10 μg/ml lactate dehydrogenase.
An assay stock buffer solution was prepared containing all of the reagents listed above, with the exception of AKT, DTT, and the test compound of interest. 55 μl of the stock solution was placed in a 96 well plate followed by addition of 2 μl of 1 mM DMSO stock containing the test compound (final compound concentration 30 μM). The plate was pre-incubated for about 10 minutes at 30° C. and the reaction initiated by addition of 10 μl of enzyme (final concentration 45 nM) and 1 mM DTF. Rates of reaction were obtained using a Molecular Devices SpectraMax Plus plate reader over a 15 minute read time at 30° C.

A word on the Ki: it is the equilibrium dissociation constant of an inhibitor or competing ligand from its target. As to `NCCC(C(=O)Nc1ccc2[nH]nc(NC(=O)c3ccco3)c2c1)c1ccccc1` (stereo not drawn) [Compound I-1041], the values for the Ki at PKA, at AKT-3 and on PDK-1 were < 1000 nM, 1000 to 10000 nM and < 1000 nM, respectively.
As to `NCCC(C(=O)Nc1ccc2[nH]nc(NC(=O)c3ccc(Oc4ccccc4)cc3)c2c1)c1ccc(Cl)c(Cl)c1` (stereo not drawn) [Compound I-199], the Ki was < 1000 nM on PKA, < 1000 nM at AKT-3 and 1000 to 3000 nM at PDK-1.
On to `NCCC(C(=O)Nc1ccc2[nH]ncc2c1)c1cccc(OCc2ccccc2)c1` (stereo not drawn) [Compound I-1006], for which the Ki on PKA, at AKT-3 and at PDK-1 was < 1000 nM each time.
For the compound `NCCC(C(=O)Nc1ccc2[nH]ncc2c1)c1cccc(Cl)c1Cl` (stereo not drawn) [Compound I-106], the Ki on PKA, on AKT-3 and at PDK-1 was < 1000 nM in each case.
As for `O=C(Nc1ccc2[nH]ncc2c1)C1(c2ccccc2)CCNCC1` [Compound I-156], the Ki is < 1000 nM on PKA, 1000 to 10000 nM at AKT-3 and > 3000 nM at PDK-1.
The matching figures for `Cc1n[nH]c2ccc(NC(=O)[C@@H](CCN)c3cccc(Cl)c3F)cc12` [Compound I-126]: < 1000 nM, < 1000 nM and < 1000 nM.
The matching figures for `NCCC(C(=O)Nc1ccc2[nH]nc(NC(=O)c3ccc(CN)cc3)c2c1)c1ccc(Cl)c(Cl)c1` (stereo not drawn) [Compound I-198]: < 1000 nM, < 1000 nM and < 1000 nM.
The like results for `CCCc1ccc(C(=O)Nc2n[nH]c3ccc(NC(=O)C(CCN)c4ccc(Cl)c(Cl)c4)cc23)cc1` (stereo not drawn) [Compound I-188] were, in that order, < 1000 nM, < 1000 nM and 1000 to 3000 nM.
For `NCCC(C(=O)Nc1ccc2[nH]nc(Cl)c2c1)c1ccc(Cl)c(Cl)c1` (stereo not drawn) [Compound I-121], the Ki at PKA, on AKT-3 and at PDK-1 was < 1000 nM throughout.
For the compound `Cc1n[nH]c2ccc(NC(=O)C(CCN)c3cccc(Cl)n3)cc12` (stereo not drawn) [Compound I-129], the Ki at PKA was < 1000 nM; on AKT-3 it was < 1000 nM; at PDK-1 it was 1000 to 3000 nM.
Turning to `NC(C(=O)Nc1ccc2[nH]ncc2c1)c1ccc(Cl)c(Cl)c1` (stereo not drawn) [Compound I-54], the Ki was < 1000 nM on PKA, 1000 to 10000 nM on AKT-3 and > 3000 nM on PDK-1.
On to `NCCC(C(=O)Nc1ccc2[nH]nc(NC(=O)c3cc(F)cc(F)c3)c2c1)c1ccc(Cl)c(Cl)c1` (stereo not drawn) [Compound I-201], for which the Ki is < 1000 nM on PKA, < 1000 nM at AKT-3 and > 3000 nM at PDK-1.
Take `N#Cc1cccc(Nc2n[nH]c3ccc(NC(=O)C(CCN)c4ccc(Cl)c(Cl)c4)cc23)c1` (stereo not drawn) [Compound I-165]: the inhibition constant (Ki) at PKA, at AKT-3 and at PDK-1 was < 1000 nM each time.
Take `NCC(C(=O)Nc1ccc2[nH]ncc2c1)c1ccc(Cl)c(Cl)c1` (stereo not drawn) [Compound I-99]: the Ki is < 1000 nM at PKA, < 1000 nM at AKT-3 and > 3000 nM on PDK-1.
`CNc1n[nH]c2ccc(NC(=O)C(CCN)c3ccc(Cl)c(Cl)c3)cc12` (stereo not drawn) [Compound I-134]: the inhibitory constant (Ki) is < 1000 nM at PKA, < 1000 nM on AKT-3 and > 3000 nM at PDK-1.
As for `Cc1cccc(C(=O)Nc2n[nH]c3ccc(NC(=O)C(CCN)c4ccc(Cl)c(Cl)c4)cc23)c1` (stereo not drawn) [Compound I-185], the values for the Ki at PKA, at AKT-3 and on PDK-1 were < 1000 nM, < 1000 nM and 1000 to 3000 nM, respectively.
In the case of `CN(C)CCC(C(=O)Nc1ccc2[nH]ncc2c1)c1ccc(Cl)c(Cl)c1` (stereo not drawn) [Compound I-226], the Ki was < 1000 nM at PKA, < 1000 nM on AKT-3 and > 3000 nM at PDK-1.
As to `NC[C@@H](C(=O)Nc1ccc2[nH]ncc2c1)c1ccc(Cl)c(Cl)c1` [Compound I-247], the Ki at PKA is < 1000 nM; at AKT-3, < 1000 nM; on PDK-1, > 3000 nM.
On to `Cc1n[nH]c2ccc(NC(=O)C(CCN)c3ccc(Cl)c(Cl)c3O)cc12` (stereo not drawn) [Compound I-133], for which the values for the Ki at PKA, at AKT-3 and on PDK-1 were < 1000 nM, < 1000 nM and > 3000 nM, respectively.
Take `NCCC(C(=O)Nc1ccc2[nH]nc(NC(=O)c3cccs3)c2c1)c1ccc(Cl)c(Cl)c1` (stereo not drawn) [Compound I-169]: the Ki at PKA, at AKT-3 and at PDK-1 was < 1000 nM in each case.
For the compound `NCCC(C(=O)Nc1ccc2[nH]nc(Nc3ccc(Br)cc3)c2c1)c1ccc(Cl)c(Cl)c1` (stereo not drawn) [Compound I-166], the inhibitory constant (Ki) at PKA was < 1000 nM; on AKT-3 it was < 1000 nM; on PDK-1, 1000 to 3000 nM.
Regarding `NCC(C(=O)Nc1ccc2[nH]ncc2c1)c1ccc(Cl)cc1` (stereo not drawn) [Compound I-242], the Ki at PKA, at AKT-3 and at PDK-1 was < 1000 nM each time.
For the compound `N#Cc1ccc(Nc2n[nH]c3ccc(NC(=O)C(CCN)c4ccc(Cl)c(Cl)c4)cc23)cc1` (stereo not drawn) [Compound I-164], the Ki at PKA is < 1000 nM; at AKT-3, < 1000 nM; at PDK-1 it was 1000 to 3000 nM.

For the origin of these results see patent publication US7041687B2, “Indazole compounds useful as protein kinase inhibitors” (Vertex Pharmaceuticals Incorporated, priority 2002, dated 2006).
